In US6737383B1, “Herbicidal oxadiazolidines” (priority 1999, dated 2004):

What was measured:
[1] = test system: bedstraw; experiment: Test B pre/postemergence bedstraw; assay type: in vivo, Galium aparine
Summary of the method: (§1)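 Response is a visual 0-to-10 score relative to untreated plants, where 0 means no effect and 10 means complete control, taken twelve to sixteen days after application. Treatments went onto soil at planting and onto foliage of 1- to 4-leaf plants, using a surfactant-containing non-phytotoxic solvent.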

[2] = test system: blackgrass; experiment: Test B pre/postemergence blackgrass; assay type: in vivo, Alopecurus myosuroides
Summary of the method: as §1

[3] = test system: surinam grass; experiment: Test B pre/postemergence surinam grass; assay type: in vivo, Brachiaria decumbens
Summary of the method: as §1

[4] = test system: cocklebur; experiment: Test B pre/postemergence cocklebur; assay type: in vivo, Xanthium strumarium
Summary of the method: as §1

[5] = test system: corn; experiment: Test B pre/postemergence corn; assay type: in vivo, Zea mays
Summary of the method: as §1

[6] = test system: crabgrass; experiment: Test B pre/postemergence crabgrass; assay type: in vivo, Digitaria sanguinalis
Summary of the method: as §1

[7] = test system: giant foxtail; experiment: Test B pre/postemergence giant foxtail; assay type: in vivo, Setaria faberii
Summary of the method: as §1

[8] = test system: pigweed; experiment: Test B pre/postemergence pigweed; assay type: in vivo, Amaranthus retroflexus
Summary of the method: as §1

[9] = test system: soybean; experiment: Test B pre/postemergence soybean; assay type: in vivo, Glycine max
Summary of the method: as §1

[10] = test system: sugar beet; experiment: Test B pre/postemergence sugar beet; assay type: in vivo, Beta vulgaris
Summary of the method: as §1

[11] = test system: velvetleaf; experiment: Test B pre/postemergence velvetleaf; assay type: in vivo, Abutilon theophrasti
Summary of the method: as §1

[12] = test system: wheat; experiment: Test B pre/postemergence wheat; assay type: in vivo, Triticum aestivum
Summary of the method: as §1

[13] = test system: wild oat; experiment: Test B pre/postemergence wild oat; assay type: in vivo, Avena fatua
Summary of the method: as §1

[14] = test system: purple nutsedge; experiment: Test B pre/postemergence purple nutsedge; assay type: in vivo, Cyperus rotundus
Summary of the method: as §1

[15] = test system: rice; experiment: Test B flood test rice; assay type: in vivo, Oryza sativa
Summary of the method: (§2)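 Plants were grown to the 2-leaf stage before treatment with test chemical, then held in a greenhouse for twelve to sixteen days. Injury was visually rated against untreated controls on a 0–10 scale, where 0 is no effect and 10 is complete control.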

[16] = test system: duck salad; experiment: Test B flood test duck salad; assay type: in vivo, Heteranthera limosa
Summary of the method: as §2

[17] = Preemergence, Rate 62 g/ha, scale of 0 to 10 where 0 is no effect and 10 is complete control
[18] = Preemergence, Rate 125 g/ha, 0 is no effect, 10 is complete control
[19] = Preemergence, Rate 250 g/ha, scale 0 to 10, 0 is no effect, 10 is complete control
[20] = Preemergence, Rate 500 g/ha, scale of 0 to 10 where 0 is no effect and 10 is complete control
[21] = Rate 62 g/ha, Postemergence, scale of 0 to 10 where 0 is no effect and 10 is complete control
[22] = Rate 125 g/ha, Postemergence, scale 0 to 10
[23] = Rate 500 g/ha, Postemergence, scale 0 to 10
[24] = Rate 31 g/ha, Pre-emergence section (flood test species), scale 0 to 10
[25] = Rate 62 g/ha, headed Pre-emergence (flood test species), scale 0 to 10 (0 no effect, 10 complete control)
[26] = Rate 125 g/ha, Pre-emergence, flood test species, scale 0 to 10 where 0 is no effect and 10 is complete control
[27] = Rate 250 g/ha, Pre-emergence, flood-test species, scale 0 to 10, 0 is no effect, 10 is complete control
[28] = Rate 500 g/ha, headed Pre-emergence (flood test species), scale 0 to 10 (0 no effect, 10 complete control)

Cc1nc(C)c(-n2c(=O)on(C(=O)N(c3ccc(Cl)cc3)C(C)C)c2=O)s1 [Compound 196]
0: Bedstraw plant response rating [1, 17] | Bedstraw plant response rating (0 to 10 scale) [1, 18] | Bedstraw plant response rating [1, 19] | Plant response rating, Bedstraw [1, 20] | Bedstraw plant response rating [1, 21] | Bedstraw plant response rating [1, 22] | Plant response rating (0 to 10; 0 is no effect, 10 is complete control), Bedstraw ([1]; Rate 250 g/ha, Postemergence) | Bedstraw plant response rating [1, 23] | Blackgrass plant response rating [2, 17] | Blackgrass plant response rating (0 to 10 scale) [2, 18] | Blackgrass plant response rating [2, 19] | Plant response rating, Blackgrass [2, 20] | Blackgrass plant response rating [2, 21] | Blackgrass plant response rating [2, 22] | Plant response rating (0 to 10; 0 is no effect, 10 is complete control), Blackgrass ([2]; Rate 250 g/ha, Postemergence) | Blackgrass plant response rating [2, 23] | B. signalgrass plant response rating [3, 17] | B. signalgrass plant response rating (0 to 10 scale) [3, 18] | B. signalgrass plant response rating [3, 19] | Plant response rating, B. signalgrass [3, 20] | B. signalgrass plant response rating [3, 21] | B. signalgrass plant response rating ([3]; Rate 125 g/ha, Postemergence, scale 0 (no effect) to 10 (complete control)) | Plant response rating, B. signalgrass ([3]; Rate 250 g/ha, Postemergence, scale 0 to 10, 0 is no effect, 10 is complete control) | B. signalgrass plant response rating ([3]; Rate 500 g/ha, Postemergence, scale 0 to 10, 0 no effect, 10 complete control) | Cocklebur plant response rating [4, 17] | Cocklebur plant response rating (0 to 10 scale) [4, 18] | Cocklebur plant response rating [4, 19] | Plant response rating, Cocklebur [4, 20] | Cocklebur plant response rating [4, 21] | Cocklebur plant response rating [4, 22] | Plant response rating (0 to 10; 0 is no effect, 10 is complete control), Cocklebur ([4]; Rate 250 g/ha, Postemergence) | Cocklebur plant response rating [4, 23] | Corn plant response rating [5, 17] | Corn plant response rating (0 to 10 scale) [5, 18] | Corn plant response rating [5, 19] | Plant response rating, Corn [5, 20] | Corn plant response rating [5, 21] | Corn plant response rating [5, 22] | Plant response rating (0 to 10; 0 is no effect, 10 is complete control), Corn ([5]; Rate 250 g/ha, Postemergence) | Corn plant response rating [5, 23] | Crabgrass plant response rating [6, 17] | Crabgrass plant response rating (0 to 10 scale) [6, 18] | Crabgrass plant response rating [6, 19] | Plant response rating, Crabgrass [6, 20] | Crabgrass plant response rating [6, 21] | Crabgrass plant response rating [6, 22] | Plant response rating (0 to 10; 0 is no effect, 10 is complete control), Crabgrass ([6]; Rate 250 g/ha, Postemergence) | Crabgrass plant response rating [6, 23] | Giant foxtail plant response rating [7, 17] | Giant foxtail plant response rating (0 to 10 scale) [7, 18] | Giant foxtail plant response rating [7, 19] | Plant response rating, Giant foxtail [7, 20] | Giant foxtail plant response rating [7, 21] | Giant foxtail plant response rating [7, 22] | Plant response rating (0 to 10; 0 is no effect, 10 is complete control), Giant foxtail ([7]; Rate 250 g/ha, Postemergence) | Giant foxtail plant response rating [7, 23] | Redroot pigweed plant response rating [8, 17] | Redroot pigweed plant response rating (0 to 10 scale) [8, 18] | Redroot pigweed plant response rating [8, 19] | Plant response rating, Redroot pigweed [8, 20] | Redroot pigweed plant response rating [8, 21] | Redroot pigweed plant response rating [8, 22] | Plant response rating (0 to 10; 0 is no effect, 10 is complete control), Redroot pigweed ([8]; Rate 250 g/ha, Postemergence) | Redroot pigweed plant response rating [8, 23] | Soybean plant response rating [9, 17] | Soybean plant response rating (0 to 10 scale) [9, 18] | Soybean plant response rating [9, 19] | Plant response rating, Soybean [9, 20] | Soybean plant response rating [9, 21] | Soybean plant response rating [9, 22] | Plant response rating (0 to 10; 0 is no effect, 10 is complete control), Soybean ([9]; Rate 250 g/ha, Postemergence) | Soybean plant response rating [9, 23] | Sugarbeets plant response rating [10, 17] | Sugarbeets plant response rating (0 to 10 scale) [10, 18] | Sugarbeets plant response rating [10, 19] | Plant response rating, Sugarbeets [10, 20] | Sugarbeets plant response rating [10, 21] | Sugarbeets plant response rating [10, 22] | Plant response rating (0 to 10; 0 is no effect, 10 is complete control), Sugarbeets ([10]; Rate 250 g/ha, Postemergence) | Sugarbeets plant response rating [10, 23] | Velvetleaf plant response rating [11, 17] | Velvetleaf plant response rating [11, 19] | Plant response rating, Velvetleaf [11, 20] | Velvetleaf plant response rating [11, 21] | Velvetleaf plant response rating [11, 22] | Plant response rating (0 to 10; 0 is no effect, 10 is complete control), Velvetleaf ([11]; Rate 250 g/ha, Postemergence) | Wheat plant response rating [12, 17] | Wheat plant response rating [12, 19] | Plant response rating, Wheat [12, 20] | Wheat plant response rating [12, 21] | Wheat plant response rating [12, 22] | Plant response rating (0 to 10; 0 is no effect, 10 is complete control), Wheat ([12]; Rate 250 g/ha, Postemergence) | Wild oats plant response rating [13, 17] | Wild oats plant response rating [13, 19] | Plant response rating, Wild oats [13, 20] | Wild oats plant response rating [13, 21] | Wild oats plant response rating [13, 22] | Plant response rating (0 to 10; 0 is no effect, 10 is complete control), Wild oats ([13]; Rate 250 g/ha, Postemergence) | Nutsedge plant response rating [14, 17] | Nutsedge plant response rating (0 to 10 scale) [14, 18] | Nutsedge plant response rating [14, 19] | Plant response rating, Nutsedge [14, 20] | Nutsedge plant response rating [14, 21] | Nutsedge plant response rating [14, 22] | Plant response rating (0 to 10; 0 is no effect, 10 is complete control), Nutsedge ([14]; Rate 250 g/ha, Postemergence) | Nutsedge plant response rating [14, 23] | Rice plant response rating [15, 24] | Rice plant response rating [15, 25] | Rice plant response rating [15, 26] | Rice plant response rating [15, 27] | Plant response rating, Rice [15, 28] | Ducksalad plant response rating [16, 24] | Ducksalad plant response rating [16, 25] | Ducksalad plant response rating [16, 26] | Ducksalad plant response rating [16, 27] | Plant response rating, Ducksalad [16, 28]
